Measured values reported in ChEMBL document CHEMBL1147287, “Antitumor agents, 107. New cytotoxic 4-alkylamino analogues of 4'-demethyl-epipodophyllotoxin as inhibitors of human DNA topoisomerase II” (1989).
In brackets after ≈: the same amount, converted by molar mass. Activity calls are given as the source filed them. No cut-off for these calls is given here.

Key:
[1] = biological target: DNA topoisomerase 2-alpha (Homo sapiens) (UniProt P11388); test: Inhibition of human DNA topoisomerase 2 assessed as bacteriophage P4 DNA unknotting at 100 uM after 30 mins by agarose gel electrophoresis
[2] = system: KB; test: Cytotoxicity against human KB cells assessed as reduction in cell number after 3 days by crystal violet staining; format: functional; settings: 72 h, read-out: ED50 (the source's name)
[3] = biological target: DNA topoisomerase 2-alpha (Homo sapiens) (UniProt P11388); test: Inhibition of DNA topoisomerase 2 in human KB cells assessed as enzyme-[methyl-3H]thymidine-labeled DNA complex formation at 10 uM after 1 hr by K-SDS precipitation assay; format: cell-based
[4] = biological target: DNA topoisomerase 2-alpha (Homo sapiens) (UniProt P11388); test: Inhibition of human DNA topoisomerase 2 assessed as bacteriophage P4 DNA unknotting after 30 mins by agarose gel electrophoresis
[5] = biological target: DNA topoisomerase 2-alpha (Homo sapiens) (UniProt P11388); test: Inhibition of DNA topoisomerase 2 in human KB cells assessed as enzyme-[methyl-3H]thymidine-labeled DNA complex formation at 5 uM after 1 hr by K-SDS precipitation assay; format: cell-based
[6] = Inhibition of microtubule polymerization

Sequence of DNA topoisomerase 2-alpha (Homo sapiens) (P11388 whole entry): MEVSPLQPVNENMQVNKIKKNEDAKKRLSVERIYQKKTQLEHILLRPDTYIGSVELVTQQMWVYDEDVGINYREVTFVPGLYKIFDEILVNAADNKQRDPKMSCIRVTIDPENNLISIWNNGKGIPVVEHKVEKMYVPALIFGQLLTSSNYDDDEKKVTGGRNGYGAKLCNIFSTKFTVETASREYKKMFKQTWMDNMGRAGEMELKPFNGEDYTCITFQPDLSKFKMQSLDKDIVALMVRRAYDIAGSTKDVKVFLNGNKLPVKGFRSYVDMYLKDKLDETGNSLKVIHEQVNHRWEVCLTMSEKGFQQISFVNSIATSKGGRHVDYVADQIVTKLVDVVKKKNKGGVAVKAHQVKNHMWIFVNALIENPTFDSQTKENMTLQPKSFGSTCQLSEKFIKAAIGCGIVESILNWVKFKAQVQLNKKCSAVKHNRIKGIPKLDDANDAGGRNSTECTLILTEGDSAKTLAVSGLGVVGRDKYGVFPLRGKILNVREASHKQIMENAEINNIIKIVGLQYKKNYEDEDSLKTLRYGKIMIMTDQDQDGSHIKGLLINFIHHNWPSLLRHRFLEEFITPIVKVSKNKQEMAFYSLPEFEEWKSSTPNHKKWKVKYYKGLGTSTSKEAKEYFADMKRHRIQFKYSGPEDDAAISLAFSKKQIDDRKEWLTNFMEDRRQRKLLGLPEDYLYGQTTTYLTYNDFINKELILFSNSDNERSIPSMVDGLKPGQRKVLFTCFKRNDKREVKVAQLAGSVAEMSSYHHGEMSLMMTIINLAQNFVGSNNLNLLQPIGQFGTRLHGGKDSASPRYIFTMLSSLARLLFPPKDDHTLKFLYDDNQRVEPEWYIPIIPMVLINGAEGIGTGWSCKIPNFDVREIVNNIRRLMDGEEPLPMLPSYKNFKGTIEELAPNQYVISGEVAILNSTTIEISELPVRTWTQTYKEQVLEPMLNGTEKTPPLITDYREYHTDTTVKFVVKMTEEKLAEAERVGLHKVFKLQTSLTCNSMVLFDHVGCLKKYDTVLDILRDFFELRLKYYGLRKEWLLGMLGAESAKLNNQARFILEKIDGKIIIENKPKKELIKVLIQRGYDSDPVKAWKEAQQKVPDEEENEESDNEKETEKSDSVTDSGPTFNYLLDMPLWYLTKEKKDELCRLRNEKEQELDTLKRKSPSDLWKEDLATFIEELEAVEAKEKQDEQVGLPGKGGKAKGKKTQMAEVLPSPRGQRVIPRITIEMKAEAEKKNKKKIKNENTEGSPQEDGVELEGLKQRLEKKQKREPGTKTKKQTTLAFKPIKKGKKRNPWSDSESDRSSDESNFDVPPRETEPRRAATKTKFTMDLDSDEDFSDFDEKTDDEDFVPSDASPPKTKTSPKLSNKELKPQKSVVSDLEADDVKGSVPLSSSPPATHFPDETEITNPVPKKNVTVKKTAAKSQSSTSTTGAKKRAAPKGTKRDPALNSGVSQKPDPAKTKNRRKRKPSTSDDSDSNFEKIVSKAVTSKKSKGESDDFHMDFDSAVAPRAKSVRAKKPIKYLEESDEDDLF

| SMILES | inhibition [1] [%] | EC50 [2] [µg/mL] | inhibition [3] [%] | ID50 [4] [µM] | inhibition [5] [%] | Activity [6] |
| --- | --- | --- | --- | --- | --- | --- |
| COc1cc([C@@H]2c3cc4c(cc3[C@H](O)[C@H]3COC(=O)[C@H]23)OCO4)cc(OC)c1O | 25 | 0.045 (≈ 0.112 µM) | 3.3 |  |  |  |
| COc1cc([C@@H]2c3cc4c(cc3[C@@H](NCCO)[C@H]3COC(=O)[C@H]23)OCO4)cc(OC)c1O | > 75 | 1.6 (≈ 3.61 µM) | 121 | 50 | 70.1 |  |
| COc1cc([C@@H]2c3cc4c(cc3[C@H](N)[C@H]3COC(=O)[C@H]23)OCO4)cc(OC)c1O | 25 | 0.25 (≈ 0.626 µM) | 8 |  |  |  |
| COc1cc([C@@H]2c3cc4c(cc3[C@H](NCCO)[C@H]3COC(=O)[C@H]23)OCO4)cc(OC)c1O |  | > 1 | 0 |  |  |  |
| COc1cc([C@@H]2c3cc4c(cc3[C@@H](NCCCO)[C@H]3COC(=O)[C@H]23)OCO4)cc(OC)c1O | 50 | 4 (≈ 8.74 µM) | 89.2 |  |  |  |
| COc1cc([C@@H]2c3cc4c(cc3[C@@H](NCC(C)O)[C@H]3COC(=O)[C@H]23)OCO4)cc(OC)c1O (stereo not given in full) | > 75 | 3.6 (≈ 7.87 µM) |  | 25 | 83.9 |  |
| C=CCN[C@@H]1c2cc3c(cc2[C@@H](c2cc(OC)c(O)c(OC)c2)[C@H]2C(=O)OC[C@@H]21)OCO3 | 75 | 3.4 (≈ 7.74 µM) | 84.2 |  |  |  |
| COc1cc([C@@H]2c3cc4c(cc3[C@@H](O)[C@H]3COC(=O)[C@H]23)OCO4)cc(OC)c1O [4'-DEMETHYLEPIPODOPHYLLOTOXIN] | 50 | 0.34 (≈ 0.849 µM) | 42.2 |  |  |  |
| CCCN[C@@H]1c2cc3c(cc2[C@@H](c2cc(OC)c(O)c(OC)c2)[C@H]2C(=O)OC[C@@H]21)OCO3 | 50 | < 0.4 | 69.7 |  |  |  |
| COc1cc([C@@H]2c3cc4c(cc3[C@@H](N)[C@H]3COC(=O)[C@H]23)OCO4)cc(OC)c1O | 50 | 0.19 (≈ 0.476 µM) | 36.4 |  |  |  |
| COc1cc([C@@H]2c3cc4c(cc3[C@H](O)[C@H]3COC(=O)[C@H]23)OCO4)cc(OC)c1OC |  |  |  |  |  | inactive |
| COc1cc([C@@H]2c3cc4c(cc3[C@@H](NC(C)CO)[C@H]3COC(=O)[C@H]23)OCO4)cc(OC)c1O (stereo not given in full) | > 75 | 2.3 (≈ 5.03 µM) |  | 25 | 89.3 |  |
| COc1cc([C@@H]2c3cc4c(cc3[C@@H](O[C@@H]3O[C@@H]5CO[C@@H](C)O[C@H]5[C@H](O)[C@H]3O)[C@H]3COC(=O)[C@H]23)OCO4)cc(OC)c1O [ETOPOSIDE] | > 75 | 0.16 (≈ 0.272 µM) | 100 | 50 | 56.2 |  |
| COCCN[C@@H]1c2cc3c(cc2[C@@H](c2cc(OC)c(O)c(OC)c2)[C@H]2C(=O)OC[C@@H]21)OCO3 | 75 | > 4 | 111 |  |  |  |
